As usually defined, the IC50 is the midpoint of a concentration-inhibition curve. One may read the inhibition as how much of the control response was suppressed.

In test [1] the test system is SMMC-7721. The experiment in a line: Cell cycle arrest in human SMMC7721 cells assessed as accumulation at G0/G1 phase at 4 uM incubated for 48 hrs by propidium iodide staining based flow cytometry (Rvb=77%). The test is classed as functional. For orientation: In flow cytometry, cells or beads pass a laser one at a time.
In test [2] the test system is SMMC-7721. The experiment in a line: Induction of apoptosis in human SMMC7721 cells assessed as early apoptotic cells at 0.25 uM incubated for 48 hrs by Annexin-V-FITC/propidium iodide staining based flow cytometry (Rvb=2.88%). Type of test: functional.
The subject of test [3] is SMMC-7721. Nature of the test: Cell cycle arrest in human SMMC7721 cells assessed as accumulation at S phase at 4 uM incubated for 48 hrs by propidium iodide staining based flow cytometry (Rvb=6.83%). The test is classed as functional.
Test [4] concerns SMMC-7721. The experiment in a line: Cell cycle arrest in human SMMC7721 cells assessed as accumulation at S phase at 0.25 uM incubated for 48 hrs by propidium iodide staining based flow cytometry (Rvb=6.83%). The test is classed as functional.
The test system of test [5] is SMMC-7721. Nature of the test: Cell cycle arrest in human SMMC7721 cells assessed as accumulation at G0/G1 phase at 1 uM incubated for 48 hrs by propidium iodide staining based flow cytometry (Rvb=77%). Type of test: functional.
Test [6] concerns SMMC-7721. The experiment in a line: Induction of apoptosis in human SMMC7721 cells assessed as viable cells at 1 uM incubated for 48 hrs by Annexin-V-FITC/propidium iodide staining based flow cytometry (Rvb=93.5%). The test is classed as functional. The conditions noted are these: SMMC-7721, 48 h, read-out: Activity.
The subject of test [7] is SMMC-7721. The experiment in a line: Induction of apoptosis in human SMMC7721 cells incubated for 48 hrs by Annexin-V-FITC/propidium iodide staining based flow cytometry. The test is classed as functional, cell-based.
The test system of another test is A-375. Nature of the test: Antiproliferative activity against human A375 cells assessed as reduction in cell growth incubated for 72 hrs by CCK-8 assay. The conditions noted are these: A-375, 72 h. Type of test: functional, cell-based. Background: Tetrazolium dyes change colour on reduction, which living cells bring about.
Test [8] has as its system HeLa. The experiment in a line: Antiproliferative activity against human HeLa cells assessed as reduction in cell growth incubated for 72 hrs by CCK-8 assay. The test is classed as functional, cell-based.
In a further test the test system is NIH3T3. Nature of the test: Cytotoxicity against mouse NIH/3T3 cells assessed as reduction in cell viability after 48 hrs by CCK8 assay. Type of test: cell-based. Conditions: NIH3T3, 48 h.
The test system of test [9] is SMMC-7721. The experiment in a line: Antiproliferative activity against human SMMC7721 cells assessed as reduction in cell growth incubated for 72 hrs by CCK-8 assay. The conditions noted are these: SMMC-7721, 72 h. The test is classed as functional, cell-based.
The test system of test [10] is SMMC-7721. The experiment in a line: Cell cycle arrest in human SMMC7721 cells assessed as accumulation at S phase at 1 uM incubated for 48 hrs by propidium iodide staining based flow cytometry (Rvb=6.83%). The test is classed as functional.
Test [11] has as its system SMMC-7721. The experiment in a line: Induction of apoptosis in human SMMC7721 cells assessed as necrotic cells at 1 uM incubated for 48 hrs by Annexin-V-FITC/propidium iodide staining based flow cytometry (Rvb=1.88%). The test is classed as functional.
The subject of test [12] is SMMC-7721. Nature of the test: Induction of apoptosis in human SMMC7721 cells assessed as early apoptotic cells at 4 uM incubated for 48 hrs by Annexin-V-FITC/propidium iodide staining based flow cytometry (Rvb=2.88%). Type of test: functional.
The next test deals with Histone deacetylase 1 (Homo sapiens, UniProt Q13547). The experiment in a line: Inhibition of human recombinant His-tagged HDAC1 (482 residues) expressed in baculovirus infected insect cells using FLUOR DE LYS SIRT1 as substrate incubated for 10 mins followed by substrate addition and measured after 30 mins by fluorescence method.
Sequence of Histone deacetylase 1 (Q13547 whole entry): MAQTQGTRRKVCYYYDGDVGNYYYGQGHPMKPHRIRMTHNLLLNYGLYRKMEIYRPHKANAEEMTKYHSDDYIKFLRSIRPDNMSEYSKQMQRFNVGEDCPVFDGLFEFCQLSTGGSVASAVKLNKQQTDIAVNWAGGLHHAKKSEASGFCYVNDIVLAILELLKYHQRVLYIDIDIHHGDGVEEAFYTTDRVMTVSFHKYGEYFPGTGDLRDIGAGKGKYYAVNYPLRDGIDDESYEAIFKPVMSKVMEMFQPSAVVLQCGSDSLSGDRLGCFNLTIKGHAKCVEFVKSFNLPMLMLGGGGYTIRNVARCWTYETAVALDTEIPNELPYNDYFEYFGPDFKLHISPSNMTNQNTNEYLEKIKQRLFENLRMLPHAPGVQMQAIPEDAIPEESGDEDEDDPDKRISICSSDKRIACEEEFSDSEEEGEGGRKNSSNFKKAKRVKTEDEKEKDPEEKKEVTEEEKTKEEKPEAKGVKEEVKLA
Test [13] addresses T1, Protein deacetylase HDAC6 (Homo sapiens, UniProt Q9UBN7).
T1 sequence (Q9UBN7 whole entry): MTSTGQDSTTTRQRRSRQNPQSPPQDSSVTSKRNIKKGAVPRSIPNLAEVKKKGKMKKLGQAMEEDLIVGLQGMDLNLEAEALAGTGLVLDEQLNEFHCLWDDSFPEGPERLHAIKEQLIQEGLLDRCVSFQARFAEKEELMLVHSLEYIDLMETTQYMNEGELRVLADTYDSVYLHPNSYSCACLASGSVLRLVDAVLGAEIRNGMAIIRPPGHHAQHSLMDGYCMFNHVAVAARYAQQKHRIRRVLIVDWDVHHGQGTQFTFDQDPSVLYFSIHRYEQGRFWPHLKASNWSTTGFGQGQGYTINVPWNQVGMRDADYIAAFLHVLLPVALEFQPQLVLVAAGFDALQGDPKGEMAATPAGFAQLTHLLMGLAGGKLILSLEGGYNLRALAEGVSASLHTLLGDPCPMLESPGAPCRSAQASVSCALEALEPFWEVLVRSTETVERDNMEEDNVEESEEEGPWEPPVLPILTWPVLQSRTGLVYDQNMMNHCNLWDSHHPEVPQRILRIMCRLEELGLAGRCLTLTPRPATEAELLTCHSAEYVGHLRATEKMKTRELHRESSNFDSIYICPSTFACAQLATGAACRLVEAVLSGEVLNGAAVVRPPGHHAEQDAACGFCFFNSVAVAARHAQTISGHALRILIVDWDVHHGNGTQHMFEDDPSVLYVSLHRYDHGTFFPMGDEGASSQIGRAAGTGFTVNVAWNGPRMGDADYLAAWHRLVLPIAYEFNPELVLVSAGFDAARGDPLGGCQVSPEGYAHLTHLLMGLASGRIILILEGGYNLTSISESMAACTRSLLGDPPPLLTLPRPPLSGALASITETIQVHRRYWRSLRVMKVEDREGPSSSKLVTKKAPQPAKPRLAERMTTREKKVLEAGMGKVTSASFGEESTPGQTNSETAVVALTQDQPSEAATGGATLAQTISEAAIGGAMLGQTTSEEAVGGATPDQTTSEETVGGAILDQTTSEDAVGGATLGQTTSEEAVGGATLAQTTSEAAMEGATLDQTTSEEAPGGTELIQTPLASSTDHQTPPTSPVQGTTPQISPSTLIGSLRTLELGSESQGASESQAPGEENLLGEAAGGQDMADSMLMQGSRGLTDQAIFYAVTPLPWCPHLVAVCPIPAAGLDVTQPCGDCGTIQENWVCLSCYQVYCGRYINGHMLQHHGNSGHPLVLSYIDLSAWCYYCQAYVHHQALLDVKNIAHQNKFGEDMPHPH
Nature of the test: Inhibition of human recombinant His-tagged HDAC6 expressed in baculovirus infected insect cells using FLUOR DE LYS SIRT1 as substrate preincubated for 10 mins followed by substrate addition and measured after 30 mins by fluorescence method.

The subject of test [14] is SMMC-7721. The experiment in a line: Induction of apoptosis in human SMMC7721 cells assessed as necrotic cells at 0.25 uM incubated for 48 hrs by Annexin-V-FITC/propidium iodide staining based flow cytometry (Rvb=1.88%). The test is classed as functional.
For test [15], the system named is HeLa. The experiment in a line: Antiproliferative activity against human HeLa cells assessed as reduction in cell growth at 8 uM incubated for 72 hrs by CCK-8 assay relative to control. Type of test: functional.
Test [16] deals with SMMC-7721. Nature of the test: Induction of apoptosis in human SMMC7721 cells assessed as viable cells at 4 uM incubated for 48 hrs by Annexin-V-FITC/propidium iodide staining based flow cytometry (Rvb=93.5%). Type of test: functional. The conditions noted are these: SMMC-7721, 48 h, read-out: Activity.
Test [17] concerns SMMC-7721. Nature of the test: Cell cycle arrest in human SMMC7721 cells assessed as accumulation at G2/M phase at 1 uM incubated for 48 hrs by propidium iodide staining based flow cytometry (Rvb=16.17%). The test is classed as functional.
Another test deals with A549. Nature of the test: Antiproliferative activity against human A549 cells assessed as reduction in cell growth incubated for 72 hrs by CCK-8 assay. The test is classed as functional, cell-based. Conditions: A549, 72 h.
A further test concerns HCT-116. The experiment in a line: Antiproliferative activity against human HCT116 cells assessed as reduction in cell growth incubated for 72 hrs by CCK-8 assay. The test is classed as functional, cell-based. The conditions noted are these: HCT-116, 72 h.

Turning to `Cn1c(SCc2ccc(C(=O)Nc3ccccc3N)cc2)nc2cc(Br)ccc2c1=O`, the Activity in the test with SMMC-7721 [1] is 56.05%; in the test with SMMC-7721 [2], 6.01%; in the test with SMMC-7721 [3] it was 24.16%; in the test with SMMC-7721 [4], 15.53%; with SMMC-7721 [5] it was 56.35%; in the test on SMMC-7721 [7], “Dose-dependent effect”. Besides, the Activity came to 18.28% with SMMC-7721 [10]; 13.6% in the test on SMMC-7721 [11]; 6.61% with SMMC-7721 [12]; 4.73% in the test with SMMC-7721 [14]; 25.37% in the test with SMMC-7721 [17]. In the test on SMMC-7721 [6], the viability at 1 µM was determined as 49.5%. Further, the IC50 with A-375 is 2840 nM; with HeLa [8], 3970 nM; with NIH3T3, 4.02 µM; with SMMC-7721 [9], 5580 nM; at Histone deacetylase 1 it was 290 nM; in [13] it was more than 40 µM. Besides, the half-maximal inhibitory concentration (IC50) was 4.6 µM in the test on A549 and 1220 nM with HCT-116. In addition, in the test with HeLa [15], the inhibition at 8 µM was determined as 72.8%. Besides, in the test on SMMC-7721 [16], the viability at 4 µM stood at 26.9%.

Turning to `COc1ccc2c(=O)n(C)c(SCc3ccc(C(=O)Nc4ccccc4N)cc3)nc2c1`, the Activity in the test on SMMC-7721 [1] is 46.09%; with SMMC-7721 [2], 9.27%; in the test on SMMC-7721 [3] it was 22.52%; in the test with SMMC-7721 [4], 22.23%; with SMMC-7721 [5], 58.1%; with SMMC-7721 [7], “Dose-dependent effect”. In addition, the Activity in the test on SMMC-7721 [10] amounted to 19.34%; with SMMC-7721 [11], 10.8%; with SMMC-7721 [12], 13%; with SMMC-7721 [14], 5.77%; in the test with SMMC-7721 [17], 22.56%. In the test on SMMC-7721 [6], the viability at 1 µM was 32.3%. Besides, the IC50 was 980 nM in the test on A-375; 1490 nM in the test on HeLa [8]; 2.53 µM in the test on NIH3T3; 30 nM with SMMC-7721 [9]; 10 nM at Histone deacetylase 1; more than 40 µM in test [13]. Also, the figures for the IC50 with A549 and in the test with HCT-116 were 3.06 µM and 750 nM, respectively. Further, the inhibition at 8 µM with HeLa [15] is 87%. For the same compound, the viability at 4 µM with SMMC-7721 [16] is 21.7%.

Regarding `CCn1c(SCc2ccc(/C=C/C(=O)Nc3ccccc3N)cc2)nc2cc(OC)ccc2c1=O`, the Activity in the test with SMMC-7721 [1] was 53.62%; in the test on SMMC-7721 [2] it was 6.55%; with SMMC-7721 [3], 28.7%; in the test on SMMC-7721 [4], 20.75%; with SMMC-7721 [5], 50.71%; in the test on SMMC-7721 [7] it was “Dose-dependent effect”. Also, the Activity in the test on SMMC-7721 [10] is reported as 16.13%; in the test on SMMC-7721 [11], 8.91%; with SMMC-7721 [12], 10.5%; with SMMC-7721 [14], 4.51%; in the test on SMMC-7721 [17], 33.16%. Besides, in the test on SMMC-7721 [6], the viability at 1 µM worked out at 45.8%. The IC50 in the test with A-375 was 940 nM; in the test on HeLa [8], 3410 nM; with NIH3T3, 4.8 µM; with SMMC-7721 [9] it was 60 nM; at Histone deacetylase 1, 100 nM; in test [13] it was more than 40 µM. Besides, the half-inhibitory concentration (IC50) with A549 is 1.76 µM; with HCT-116, 1430 nM. For the same compound, in the test with HeLa [15], the inhibition at 8 µM came out at 70.8%. Further, the viability at 4 µM in the test with SMMC-7721 [16] came to 41.3%.

For `COc1ccc2c(=O)n(-c3ccccc3Cl)c(SCc3ccc(C(=O)Nc4ccccc4N)cc3)nc2c1`, the Activity in the test with SMMC-7721 [1] was 27.52%; in the test with SMMC-7721 [2], 15.9%; with SMMC-7721 [3], 45.18%; in the test on SMMC-7721 [4], 19.96%; in the test with SMMC-7721 [5], 34.49%; with SMMC-7721 [7] it was “Dose-dependent effect”. In addition, the Activity came to 28.44% with SMMC-7721 [10]; 7.63% with SMMC-7721 [11]; 5.54% with SMMC-7721 [12]; 2.7% in the test on SMMC-7721 [14]; 37.07% in the test on SMMC-7721 [17]. Moreover, the viability at 1 µM with SMMC-7721 [6] came out at 65.6%. The IC50 was 3510 nM with A-375; 1320 nM in the test with HeLa [8]; 3.39 µM in the test on NIH3T3; 2160 nM in the test on SMMC-7721 [9]; 380 nM on Histone deacetylase 1; more than 40 µM in test [13]. Besides, the figures for the half-maximal inhibitory concentration (IC50) with A549 and with HCT-116 were 6.27 µM and 2380 nM, respectively. In the test on HeLa [15], the inhibition at 8 µM turned out to be 82.7%. In the test on SMMC-7721 [16], the viability at 4 µM turned out to be 65.8%.

The values are drawn from ChEMBL document CHEMBL4393680, “Design, synthesis and biological evaluation of novel thioquinazolinone-based 2-aminobenzamide derivatives as potent histone deacetylase (HDAC) inhibitors” (Eur J Med Chem, 2019).
